Each structure is given as a SMILES string. Read-outs that look alike come from different tables or passages of the source. A value given as a limit tells only on which side of the number the result lay.

The text below walks through data of paper PMC9962372, “Antiparasitic Meroterpenoids Isolated from Memnoniella dichroa CF-080171” (Pharmaceutics, 2023).

Series [1] relates to T. cruzi Tulahuen C4. Kind of series: Transgenic T. cruzi β-D-galactosidase assay in infected L6 cells. The class given is cell-based, Trypanosoma cruzi. The settings on record: for EC50: 96 h, infected L6 host cells, β-galactosidase readout, read-out: Antiparasitic EC50 T. cruzi Tulahuen C4; for activity against T. cruzi Tulahuen (in words): whole parasites, extracts in HTS / bioassay-guided testing. On the procedure: (§1) The EC50 of all the biological assays were computed with the Genedata Screener application (Genedata AG, Basel, Switzerland) using the equation below to calculate percentage inhibition: Percentage inhibition=[1−(Abswell−Absneg/Abspos−Absneg)]×100
(§2) Here, Abswell = absorbance/well, Abspos = average absorbance in positive control wells, and Absneg = average absorbance in negative wells.
The EC50 determinations of the isolated compounds were performed with 16-point dose-response curves. Each concentration was evaluated in triplicate (concentration range of 50–0.00152 µM) in the transgenic T. cruzi β-D-galactosidase assay as previously described by Annang et al., 2014 [27]. The T. cruzi Tulahuen strain used is a genetically modified strain that expresses the Escherichia coli β-galactosidase gene, lacZ [28]. It was kindly supplied by Marcel Kaiser (Swiss Tropical and Public Health Institute). The parasites were generally maintained in a growth medium (RPMI 1640 supplemented with 10% inactivated fetal bovine serum (iFBS), 100 µg/mL streptomycin, 100 U/mL penicillin, 2 mM L-glutamine) at 37 °C, 5% CO2. For the assay, transgenic trypomastigote stage parasites were used to infect L6 rat skeletal muscle cells (host). Fifty-five microliters (55 µL) of the infected L6 cell culture were dispensed into 384-well assay plates (2 × 10^3 infected L6 cells/well) containing 5 µL of the test compounds (parasite medium/10 µgmL^−1 benznidazole were used as positive/negative growth controls) and incubated for 96 h at 37 °C, after which 15 µL of assay solution (100 µM CRPG and 0.1% NP40 made up in PBS) were added to each well, and plates were further incubated in the dark for 4 h at 37 °C. Absorbance in the wells was read at 585 nm in an Envision plate reader (Perkin Elmer, Waltham, MA, USA).

The nature of series [2]: Cytotoxicity assay (resazurin) in L6 rat skeletal muscle cells. The class given is cell-based. The settings on record: L6 rat skeletal muscle cells (ATCC CRL-1458), read-out: Cytotoxic EC50 L6. As to the method: Seeding of the L6 cells was done in 96-well plates at 4 × 10^3 cells per well in 100 µL volume; they were then cultured for 24 h. Ten millimolar (10 mM) DMSO stocks of the compounds to be tested were used to prepare 16-point dose-response curves. Each concentration was evaluated in triplicate (using the cell culture medium as diluent) at a final volume of 300 µL (compound concentration range of 50–0.00152 µM and DMSO at 0.5 %). The spent growth medium from the 24 h-seeded cells was carefully replaced with 100 µL of the prepared working concentrations of the compounds to be tested and incubated for 72 h. The spent medium was again carefully replaced (without disturbing the layer of cells at the bottom of each well) with 100 µL fresh medium, after which 20 µL of 0.02% resazurin (previously diluted in 1X PBS) was added to the wells and incubated for 2 h in the dark at 37 °C. The plates were then shaken for 5 s, and fluorescence was read at 570–590 nm in a TECAN Infinite F200 fluorimeter.
(In general: Resazurin is reduced to fluorescent resorufin, in cell work by metabolically active cells.)

Series [3] deals with Hep G2 cells. Kind of series: MTT-based cytotoxicity assay in HepG2 cells. The settings on record: Hep G2 EC50 versus P. falciparum 3D7 EC50. It counts as cell-based. On the procedure: as §1, §2
(§3) The EC50 determinations of the isolated compounds were performed with 12-point dose-response curves. Each concentration was evaluated in triplicate (concentration range of 50–0.0244 µM) in an MTT-based assay performed in liver carcinoma Hep G2 HB-8065 ATCC (American Type Culture Collection) cells as previously described by Annang et al., 2020 [29]. Cells (96-well plates were used with seeding at 1 × 10^4 cells/well) were cultured in 200 µL MEM medium per well at 37 °C, 5% CO2 for 24 h, after which the spent media were replaced with 200 µL MEM medium and 1 μL of test compounds. DMSO (0.5%), 8 mM methyl methanesulfonate and doxorubicin were used as positive, negative, and standard drug controls, respectively. After 72 h incubation with the test compounds at 37 °C, 100 µL of 0.5 mg/mL MTT solution diluted in MEM without phenol red was added to each well, and plates were briefly shaken and further incubated for 3 h at 37 °C. The supernatant in each well was carefully discarded and replaced with 100 µL of DMSO, and plates were gently shaken (to solubilize the formazan formed) before reading the absorbance at 570 nm in a Victor2 plate reader (Perkin Elmer, USA).

Series [4] can be described thus: MTT-based cytotoxicity assay in HepG2 cells. As to conditions: human, Hep G2 liver carcinoma cells (ATCC HB-8065); 72 h, MTT; read-out: Cytotoxic EC50 Hep G2. The class given is cell-based. As to the method:
as §1, §2, §3

The test system of series [5] is P. falciparum 3D7. The series can be described thus: P. falciparum 3D7 lactate dehydrogenase whole parasite assay. The class given is cell-based, Plasmodium falciparum. The settings on record: for EC50: Plasmodium falciparum. On the procedure:
The EC50 determinations of the isolated compounds were performed with 16-point dose-response curves. Each concentration was evaluated in triplicate (concentration range of 100–0.00305 µM) using the P. falciparum 3D7 lactate dehydrogenase whole parasite assay as previously described by Pérez-Moreno et al., 2016 [25]. The Plasmodium falciparum 3D7 strain is a clone of the NF54 strain, which was previously isolated from a patient. The parasites were maintained in O^+ human erythrocytes at 5% haematocrit and 0.1–8% parasitaemia, with incubation at 37 °C, 1% O2, 5% CO2, and 94% N2 in complete medium (10.4 g/L RPMI 1640, 150 μM hypoxanthine, 12.5 μg/mL gentamicin, 0.2% NaHCO3, 0.5% albuMAX II, 2% human O^+ serum). The […] (LDH) assay was performed in 384-well plates using late-ring/early trophozoite synchronized parasites at 2% hematocrit and 0.25% parasitaemia. Twenty-five microliters of (25 µL) parasite culture were incubated with 5 µL of the test compounds (parasite medium/100 nM chloroquine used as positive/negative growth controls) for 72 h, after which the plates were frozen for 4 h, thawed for 1 h at room temperature before adding 70 µL of freshly prepared LDH solution (1 U/mL diaphorase, 143 µM APAD, 143 mM sodium L-lactate, 178.75 µM NBT, 0.7% Tween 20, 100 mM Tris-HCL) at pH 8.0. Plates were briefly shaken and incubated for 10 min (in the dark), and absorbance was read at 650 nm in an Envision plate reader (Perkin Elmer, Waltham, MA, USA).
as §1, §2

Series [6] has as its system P. falciparum 3D7. Described as above. The class given is cell-based, Plasmodium falciparum. As to conditions: whole parasites; extracts in HTS / bioassay-guided testing.
Series [7] has as its system three different cell lines. Set-up: method as in PMID 10656571. The settings on record: at 100 µM; cited from earlier work.
[8] abbreviates: C3 ketone (1) versus C3 hydroxyl (2).
The mark [9] stands for this setting: Trypanosoma cruzi, TULAHUEN, L6, 96 h.
Setting [10] is: 3D7 / TULAHUEN, read-out: antiparasitic EC50 against both parasites (range).
The mark [11] stands for this setting: 3D7, 72 h, LDH readout, 16-point curves in triplicate, read-out: Antiparasitic EC50 P. falciparum 3D7.

A word on the EC50: it is the concentration at which the effect is half-maximal. In the case of `CC1(C)C(=O)CC[C@]2(C)[C@H]3Cc4c(O)cc5c(c4O[C@]3(C)CC[C@@H]12)CN(CCO)C5=O` [Compound 1, Memnobotrin C], the EC50 was 266 ± 24 nM in series [1], 226 nM in series [1] (setting [9]), 40 to 1370 nM in series [5] (setting [10]) and 40 ± 2 nM in series [5] (setting [11]). For the same compound, the “fold improvement of biological activity against T. cruzi Tulahuen C4 compared to compound 2” value in series [1] (setting [8]) is 5 fold. The EC50 at 72 h in series [2] was < 98 nM; in series [4] it was 1.2 µM. The “Selectivity index (SI), Hep G2 in comparison to activity in P. falciparum 3D7” value (shortened to “Selectivity index (SI) … in P. falciparum 3D7”) in series [3] is 30. Moreover, in series [5] (setting [8]), the “fold improvement of biological activity against P. falciparum 3D7 compared to compound 2” value stood at 5 fold.
`CC1(C)[C@@H](O)CC[C@]2(C)[C@H]3Cc4c(O)cc5c(c4O[C@]3(C)CC[C@@H]12)CN(CCO)C5=O` [Compound 2, memnobotrin D]: the EC50 in series [1] (setting [9]) was 1370 ± 18 nM; in series [5] (setting [10]), 40 to 1370 nM; in series [5] (setting [11]), 201 ± 16 nM. Also, the values for the EC50 at 72 h in series [2] and in series [4] were 1390 ± 40 nM and 4.53 µM, respectively. Besides, the “Selectivity index (SI) … in P. falciparum 3D7” value in series [3] is 22.5.
`CC(=O)O[C@H]1CC[C@]2(C)[C@H]3Cc4c(O)cc5c(c4O[C@]3(C)CC[C@H]2C1(C)C)CN(CCO)C5=O` [Compound 3, 8-epi-memnobotrin B]: the “fold lower potency against T. cruzi Tulahuen C4 in comparison to compound 1” value in series [1] is 157 fold. Also, the figures for the EC50 in series [1] (setting [9]) and in series [5] (setting [11]) were 41770 ± 10 nM and 7170 ± 50 nM, respectively. Besides, in series [5], the “fold lower potency against P. falciparum 3D7 in comparison to compound 1” value is recorded as 179 fold.
For the compound `CC(=CCc1c(O)cc2c(c1O)C(=O)OC2)CCC=C(C)CCCC(C)(C)OC1OC(CO)C(O)C(O)C1O` (stereo not shown) [Compound 4], the EC50 in series [1] (setting [9]) was determined as 934 ± 88 nM; in series [5] (setting [11]), 243 ± 23 nM. The “Selectivity index (SI) … in P. falciparum 3D7” value in series [3] is given as 19.9. In series [4], the EC50 at 72 h came out at 4.84 µM.
With `C/C(=C\CCC1(C)C=Cc2c(cc3c(c2O)C(=O)OC3)O1)CCC(O)C(C)(C)O` (stereo not shown) [Compound 5], the “activity against P. falciparum 3D7 (in words)” value in series [6] is listed as “low or no biological activity”. Also, the results for the EC50 in series [1] (setting [9]) and in series [5] (setting [11]) were > 50000 nM and 8000 ± 200 nM, respectively. Moreover, in series [1], the “activity against T. cruzi Tulahuen (in words)” value is recorded as “low or no biological activity”. Moreover, the EC50 at 72 h in series [2] was > 50000 nM.
As to `Cc1cc(O)c2c(c1)O[C@]1(C)CC[C@H]3C(C)(C)[C@@H](O)CC[C@]3(C)[C@H]1C2` [Compound 6], the “activity against P. falciparum 3D7 (in words)” value in series [6] is listed as “low or no biological activity”. Further, the values for the EC50 in series [1] (setting [9]) and in series [5] (setting [11]) were 7000 ± 200 nM and 4000 ± 100 nM, respectively. For the same compound, in series [1], the “activity against T. cruzi Tulahuen (in words)” value was “low or no biological activity”. Besides, the EC50 at 72 h in series [2] came out at 2000 ± 100 nM.
As to `C=C1CC[C@H]2C(C)(C)C(=O)CC[C@]2(C)[C@H]1Cc1c(O)cc2c(c1O)C(=O)OC2` [Compound 7], the “activity against P. falciparum 3D7 (in words)” value in series [6] was “low or no biological activity”. For the same compound, the concentration giving a half-maximal response (EC50) was > 50000 nM in series [1] (setting [9]) and > 100000 nM in series [5] (setting [11]). Further, the “activity against T. cruzi Tulahuen (in words)” value in series [1] is listed as “low or no biological activity”. For the same compound, in series [2], the EC50 at 72 h is > 50000 nM.
Take `CC1(C)[C@@H](O)CC[C@]2(C)[C@H]3Cc4c(O)cc5c(c4O[C@]3(C)CC[C@@H]12)C(=O)OC5` [Compound 8]: the “activity against P. falciparum 3D7 (in words)” value in series [6] is given as “low or no biological activity”. The EC50 in series [1] (setting [9]) was > 50000 nM; in series [5] (setting [11]), 17800 ± 100 nM. Further, the “activity against T. cruzi Tulahuen (in words)” value in series [1] was “low or no biological activity”.
On to `CC(=O)O[C@H]1CC[C@]2(C)[C@H]3Cc4c(O)cc5c(c4O[C@@]3(C)CC[C@H]2C1(C)C)CN(CCO)C5=O` [Memnobotrin B], for which the “cytotoxic activity, inhibition percentages” value in series [7] was 80–90%.
